According to article PMC10619140, “Thinking outside the CaaX-box: an unusual reversible prenylation on ALDH9A1” (RSC Chemical Biology, 2023):
Values belong to the compound of their own block, whether it stands above or below them.

Legend:
[1] = biological target: T1, ALDH9A1 (Homo sapiens, UniProt P49189); experiment: inhibition of TMABAL oxidation by purified enzyme (NADH formation); preincubation and dialysis; also slow substrate; type: biochemical
T1 construct: recombinant ALDH9A1

[2] = biological target: T1, ALDH9A1; experiment: MST (RED-tris-NTA labelled enzyme); also NADH-formation activity assay; type: binding
[3] = biological target: T1, ALDH9A1; experiment: MST; also inhibition of TMABAL and ABAL oxidation at […]; type: binding

T1 sequence (P49189 whole entry): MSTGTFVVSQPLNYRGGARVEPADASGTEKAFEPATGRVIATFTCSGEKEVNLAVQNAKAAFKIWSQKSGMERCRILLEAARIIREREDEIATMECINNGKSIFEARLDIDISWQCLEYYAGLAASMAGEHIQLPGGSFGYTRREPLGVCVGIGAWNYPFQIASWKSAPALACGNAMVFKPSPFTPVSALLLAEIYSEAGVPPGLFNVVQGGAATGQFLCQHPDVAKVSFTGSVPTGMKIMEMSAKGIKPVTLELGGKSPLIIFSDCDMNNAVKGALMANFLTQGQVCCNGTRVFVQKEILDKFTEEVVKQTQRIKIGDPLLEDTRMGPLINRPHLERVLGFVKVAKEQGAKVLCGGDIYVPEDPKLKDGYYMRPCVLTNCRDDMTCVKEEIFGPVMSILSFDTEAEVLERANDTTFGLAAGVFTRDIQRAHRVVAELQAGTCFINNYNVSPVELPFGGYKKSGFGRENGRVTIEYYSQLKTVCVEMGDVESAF

IC50 [1]: ~10 µM
SMILES: CC(C)=CCC/C(C)=C/CC/C(C)=C/C=O [FCHO, farnesal]

Kd [2]: 11 µM
SMILES: C[N+](C)(C)CCCC=O [TMABAL]

Kd [3]: 1200 µM
SMILES: C[N+](C)(C)NCCC(=O)[O-] [meldonium, 3-(2,2,2-trimethylhydrazinium) propionate]
